Source: the NIST ThermoML archive (doi:10.1016/j.tca.2011.08.002)
± gives the expanded uncertainty stated by the source.

Assays:
[1] = xn = mol fraction of the nth substance listed; settings: 101 kPa, Liquid, Vibrating tube method
[2] = refractive index (Na D-line) (dimensionless); xn = mol fraction of the nth substance listed; settings: 101 kPa, Liquid, Standard Abbe refractometry

C1CCC(NC2CCCCC2)CC1 [N-cyclohexylcyclohexanamine] + CCCCO
Settings | mass density, [1] [kg/m3] | refractive index, [2]
288.15 K, x2 = 0 | 915.498 ± 0.23 | 1.48636 ± 0.0004
288.15 K, x2 = 0.0512 | 914.315 ± 0.23 | 1.48502 ± 0.0004
288.15 K, x2 = 0.1 | 912.993 ± 0.22 | 1.48368 ± 0.0004
288.15 K, x2 = 0.2005 | 909.753 ± 0.2 | 1.48027 ± 0.00039
288.15 K, x2 = 0.3005 | 905.695 ± 0.19 | 1.47614 ± 0.00039
288.15 K, x2 = 0.4005 | 900.544 ± 0.18 | 1.47121 ± 0.00038
288.15 K, x2 = 0.5 | 893.978 ± 0.17 | 1.46517 ± 0.00038
288.15 K, x2 = 0.6002 | 885.407 ± 0.16 | 1.45768 ± 0.00037
288.15 K, x2 = 0.7002 | 874.118 ± 0.15 | 1.44826 ± 0.00037
288.15 K, x2 = 0.7984 | 859.411 ± 0.15 | 1.43656 ± 0.00037
288.15 K, x2 = 0.8999 | 839.302 ± 0.15 | 1.42104 ± 0.00037
288.15 K, x2 = 0.9493 | 827.33 ± 0.15 | 1.41197 ± 0.00036
293.15 K, x2 = 0 | 911.705 ± 0.23 | 1.48416 ± 0.0004
293.15 K, x2 = 0.0512 | 910.505 ± 0.23 | 1.4828 ± 0.0004
293.15 K, x2 = 0.1 | 909.162 ± 0.22 | 1.48147 ± 0.0004
293.15 K, x2 = 0.2005 | 905.869 ± 0.2 | 1.47804 ± 0.00039
293.15 K, x2 = 0.3005 | 901.749 ± 0.19 | 1.4739 ± 0.00039
293.15 K, x2 = 0.4005 | 896.535 ± 0.18 | 1.46892 ± 0.00038
293.15 K, x2 = 0.5 | 889.912 ± 0.17 | 1.46289 ± 0.00038
293.15 K, x2 = 0.6002 | 881.306 ± 0.16 | 1.45538 ± 0.00038
293.15 K, x2 = 0.7002 | 870.025 ± 0.15 | 1.44587 ± 0.00037
293.15 K, x2 = 0.7984 | 855.383 ± 0.15 | 1.43432 ± 0.00037
293.15 K, x2 = 0.8999 | 835.393 ± 0.15 | 1.4189 ± 0.00037
293.15 K, x2 = 0.9493 | 823.486 ± 0.15 | 1.40987 ± 0.00037
298.15 K, x2 = 0 | 907.923 ± 0.23 | 1.48198 ± 0.0004
298.15 K, x2 = 0.0512 | 906.698 ± 0.23 | 1.4806 ± 0.0004
298.15 K, x2 = 0.1 | 905.333 ± 0.22 | 1.47926 ± 0.0004
298.15 K, x2 = 0.2005 | 901.986 ± 0.2 | 1.47579 ± 0.00039
298.15 K, x2 = 0.3005 | 897.806 ± 0.19 | 1.47165 ± 0.00039
298.15 K, x2 = 0.4005 | 892.53 ± 0.18 | 1.46666 ± 0.00038
298.15 K, x2 = 0.5 | 885.853 ± 0.17 | 1.46059 ± 0.00038
298.15 K, x2 = 0.6002 | 877.207 ± 0.16 | 1.45309 ± 0.00038
298.15 K, x2 = 0.7002 | 865.925 ± 0.16 | 1.44368 ± 0.00037
298.15 K, x2 = 0.7984 | 851.344 ± 0.15 | 1.43208 ± 0.00037
298.15 K, x2 = 0.8999 | 831.466 ± 0.15 | 1.41673 ± 0.00037
298.15 K, x2 = 0.9493 | 819.618 ± 0.15 | 1.40779 ± 0.00036
303.15 K, x2 = 0 | 904.144 ± 0.23 | 1.47978 ± 0.0004
303.15 K, x2 = 0.0512 | 902.899 ± 0.23 | 1.47842 ± 0.0004
303.15 K, x2 = 0.1 | 901.51 ± 0.22 | 1.47704 ± 0.0004
303.15 K, x2 = 0.2005 | 898.104 ± 0.2 | 1.47358 ± 0.00039
303.15 K, x2 = 0.3005 | 893.865 ± 0.19 | 1.46939 ± 0.00039
303.15 K, x2 = 0.4005 | 888.526 ± 0.18 | 1.4644 ± 0.00038
303.15 K, x2 = 0.5 | 881.79 ± 0.17 | 1.45831 ± 0.00038
303.15 K, x2 = 0.6002 | 873.106 ± 0.16 | 1.4508 ± 0.00038
303.15 K, x2 = 0.7002 | 861.822 ± 0.16 | 1.44139 ± 0.00037
303.15 K, x2 = 0.7984 | 847.289 ± 0.15 | 1.42985 ± 0.00037
303.15 K, x2 = 0.8999 | 827.516 ± 0.15 | 1.4146 ± 0.00037
303.15 K, x2 = 0.9493 | 815.728 ± 0.15 | 1.40565 ± 0.00037
308.15 K, x2 = 0 | 900.372 ± 0.23 | 1.47761 ± 0.0004
308.15 K, x2 = 0.0512 | 899.101 ± 0.23 | 1.47623 ± 0.0004
308.15 K, x2 = 0.1 | 897.686 ± 0.22 | 1.47485 ± 0.0004
308.15 K, x2 = 0.2005 | 894.222 ± 0.21 | 1.47136 ± 0.00039
308.15 K, x2 = 0.3005 | 889.919 ± 0.19 | 1.46716 ± 0.00039
308.15 K, x2 = 0.4005 | 884.519 ± 0.18 | 1.46213 ± 0.00038
308.15 K, x2 = 0.5 | 877.726 ± 0.17 | 1.45604 ± 0.00038
308.15 K, x2 = 0.6002 | 868.997 ± 0.16 | 1.44852 ± 0.00038
308.15 K, x2 = 0.7002 | 857.708 ± 0.16 | 1.43914 ± 0.00037
308.15 K, x2 = 0.7984 | 843.219 ± 0.15 | 1.42763 ± 0.00037
308.15 K, x2 = 0.8999 | 823.538 ± 0.15 | 1.41241 ± 0.00037
308.15 K, x2 = 0.9493 | 811.807 ± 0.16 | 1.40352 ± 0.00036
313.15 K, x2 = 0 | 896.608 ± 0.23 | 1.47562 ± 0.0004
313.15 K, x2 = 0.0512 | 895.307 ± 0.23 | 1.47419 ± 0.0004
313.15 K, x2 = 0.1 | 893.863 ± 0.22 | 1.47267 ± 0.0004
313.15 K, x2 = 0.2005 | 890.338 ± 0.21 | 1.4691 ± 0.00039
313.15 K, x2 = 0.3005 | 885.971 ± 0.19 | 1.46487 ± 0.00039
313.15 K, x2 = 0.4005 | 880.507 ± 0.18 | 1.45979 ± 0.00038
313.15 K, x2 = 0.5 | 873.654 ± 0.17 | 1.45368 ± 0.00038
313.15 K, x2 = 0.6002 | 864.881 ± 0.17 | 1.44613 ± 0.00038
313.15 K, x2 = 0.7002 | 853.579 ± 0.16 | 1.43676 ± 0.00037
313.15 K, x2 = 0.7984 | 839.126 ± 0.16 | 1.42522 ± 0.00037
313.15 K, x2 = 0.8999 | 819.533 ± 0.15 | 1.41016 ± 0.00037
313.15 K, x2 = 0.9493 | 807.851 ± 0.16 | 1.40134 ± 0.00036
318.15 K, x2 = 0 | 892.847 ± 0.23 | 1.47347 ± 0.0004
318.15 K, x2 = 0.0512 | 891.512 ± 0.23 | 1.472 ± 0.0004
318.15 K, x2 = 0.1 | 890.04 ± 0.22 | 1.47049 ± 0.0004
318.15 K, x2 = 0.2005 | 886.452 ± 0.21 | 1.46689 ± 0.00039
318.15 K, x2 = 0.3005 | 882.018 ± 0.19 | 1.46265 ± 0.00039
318.15 K, x2 = 0.4005 | 876.487 ± 0.18 | 1.45753 ± 0.00038
318.15 K, x2 = 0.5 | 869.572 ± 0.17 | 1.4514 ± 0.00038
318.15 K, x2 = 0.6002 | 860.75 ± 0.17 | 1.44384 ± 0.00038
318.15 K, x2 = 0.7002 | 849.434 ± 0.16 | 1.43447 ± 0.00037
318.15 K, x2 = 0.7984 | 835.005 ± 0.16 | 1.42299 ± 0.00037
318.15 K, x2 = 0.8999 | 815.488 ± 0.16 | 1.40798 ± 0.00037
318.15 K, x2 = 0.9493 | 803.854 ± 0.16 | 1.39919 ± 0.00036
323.15 K, x2 = 0 | 889.089 ± 0.23 | 1.47134 ± 0.0004
323.15 K, x2 = 0.0512 | 887.718 ± 0.23 | 1.46985 ± 0.0004
323.15 K, x2 = 0.1 | 886.213 ± 0.22 | 1.46835 ± 0.0004
323.15 K, x2 = 0.2005 | 882.559 ± 0.21 | 1.46474 ± 0.00039
323.15 K, x2 = 0.3005 | 878.053 ± 0.2 | 1.46049 ± 0.00039
323.15 K, x2 = 0.4005 | 872.455 ± 0.18 | 1.45537 ± 0.00038
323.15 K, x2 = 0.5 | 865.476 ± 0.18 | 1.4492 ± 0.00038
323.15 K, x2 = 0.6002 | 856.603 ± 0.17 | 1.44162 ± 0.00038
323.15 K, x2 = 0.7002 | 845.267 ± 0.17 | 1.43225 ± 0.00037
323.15 K, x2 = 0.7984 | 830.854 ± 0.16 | 1.42074 ± 0.00037
323.15 K, x2 = 0.8999 | 811.404 ± 0.16 | 1.40571 ± 0.00037
323.15 K, x2 = 0.9493 | 799.814 ± 0.16 | 1.39701 ± 0.00037
